Measured values published in PubChem BioAssay AID2060616 (Molecular Pharmacology Branch, DTP, NCI, 2025).
Several values for one entry are separate records, joined by “and”; a condition that tells them apart may be missing. Equal entries are not always repeated.

Tested on: 377384-186-R-J1-PDC complex spheroid viability
Test: Anticancer human tumor 377384-186-R-J1-PDC patient-derived pancreatic carcinoma cell line growth inhibition [CLK]
Conditions: for viability, T/C: stronger effect = lower value
Outline: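 Patient-derived tumor cells grown as complex spheroids with HUVEC endothelial cells and mesenchymal stem cells, treated with drug combinations. Concentrations descend in half-log steps from near clinical Cmax, or from 10 microM if Cmax unknown.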

[1] = curve of first compound, second compound 0.0316 µM
[2] = curve of first compound, second compound 0.1 µM
[3] = curve of first compound, second compound 0.316 µM
[4] = curve of first compound, second compound 1 µM
[5] = curve of first compound, second compound 3.16 µM
[6] = curve of first compound, second compound 10 µM
[7] = second compound 0.0316 µM, first compound 0.0316 µM
[8] = second compound 0.0316 µM, first compound 0.1 µM
[9] = second compound 0.0316 µM, first compound 0.316 µM
[10] = second compound 0.0316 µM, first compound 1 µM
[11] = second compound 0.1 µM, first compound 0.0316 µM
[12] = second compound 0.1 µM, first compound 0.1 µM
[13] = second compound 0.1 µM, first compound 0.316 µM
[14] = second compound 0.1 µM, first compound 1 µM
[15] = second compound 0.316 µM, first compound 0.0316 µM
[16] = second compound 0.316 µM, first compound 0.1 µM
[17] = second compound 0.316 µM, first compound 0.316 µM
[18] = second compound 0.316 µM, first compound 1 µM
[19] = second compound 1 µM, first compound 0.0316 µM
[20] = second compound 1 µM, first compound 0.1 µM
[21] = second compound 1 µM, first compound 0.316 µM
[22] = second compound 1 µM, first compound 1 µM
[23] = second compound 3.16 µM, first compound 0.0316 µM
[24] = second compound 3.16 µM, first compound 0.1 µM
[25] = second compound 3.16 µM, first compound 0.316 µM
[26] = second compound 3.16 µM, first compound 1 µM
[27] = second compound 10 µM, first compound 0.0316 µM
[28] = second compound 10 µM, first compound 0.1 µM
[29] = second compound 10 µM, first compound 0.316 µM
[30] = second compound 10 µM, first compound 1 µM
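Further: spheroids exposed to agents for 7 days before reading.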
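Wherever viability, T/C is given: luminescence signal used as a stand-in for viable cells.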

Question: For `CCN1CCN(Cc2ccc(Nc3ncc(F)c(-c4cc(F)c5nc(C)n(C(C)C)c5c4)n3)nc2)CC1` + CNC(=O)c1ccc(Nc2nc(OC3CCCC3)c3c(-c4ccc5nc(C)oc5c4)c[nH]c3n2)c(OC)c1, which IC50 [1] is on record?
Answer: 299 nM

Question: And the IC50 [2]?
Answer: 17.4 nM

Question: And the IC50 [3]?
Answer: < 3.16 nM

Question: What about the IC50 [4] of the same compound?
Answer: < 3.16 nM

Question: What about the IC50 [5] of the same compound?
Answer: < 3.16 nM

Question: And the IC50 [6]?
Answer: < 3.16 nM

Question: And the viability, T/C (second compound 0.0316 µM, first compound 0.00316 µM)?
Answer: 105%

Question: And the viability, T/C (second compound 0.0316 µM, first compound 0.01 µM)?
Answer: 84.2%

Question: And the viability, T/C [7]?
Answer: 80%

Question: And the viability, T/C [8]?
Answer: 66.7%

Question: And the viability, T/C [9]?
Answer: 44.6%

Question: What about the viability, T/C [10] of the same compound?
Answer: 37.4%

Question: What about the viability, T/C (second compound 0.1 µM, first compound 0.00316 µM) of the same compound?
Answer: 58.9%

Question: And the viability, T/C (second compound 0.1 µM, first compound 0.01 µM)?
Answer: 53.9%

Question: And the viability, T/C [11]?
Answer: 45.8%

Question: What about the viability, T/C [12] of the same compound?
Answer: 41.1%

Question: What about the viability, T/C [13] of the same compound?
Answer: 34.4%

Question: What about the viability, T/C [14] of the same compound?
Answer: 29.3%

Question: And the viability, T/C (second compound 0.316 µM, first compound 0.00316 µM)?
Answer: 19.5%

Question: And the viability, T/C (second compound 0.316 µM, first compound 0.01 µM)?
Answer: 18.5%

Question: And the viability, T/C [15]?
Answer: 21.5%

Question: What about the viability, T/C [16] of the same compound?
Answer: 19.9%

Question: And the viability, T/C [17]?
Answer: 24.6%

Question: What about the viability, T/C [18] of the same compound?
Answer: 22.4%

Question: What about the viability, T/C (second compound 1 µM, first compound 0.00316 µM) of the same compound?
Answer: 18.6%

Question: What about the viability, T/C (second compound 1 µM, first compound 0.01 µM) of the same compound?
Answer: 23.3%

Question: What about the viability, T/C [19] of the same compound?
Answer: 20.4%

Question: And the viability, T/C [20]?
Answer: 20.8%

Question: And the viability, T/C [21]?
Answer: 20.1%

Question: And the viability, T/C [22]?
Answer: 23.3%

Question: What about the viability, T/C (second compound 3.16 µM, first compound 0.00316 µM) of the same compound?
Answer: 20.1%

Question: What about the viability, T/C (second compound 3.16 µM, first compound 0.01 µM) of the same compound?
Answer: 22.1%

Question: What about the viability, T/C [23] of the same compound?
Answer: 19.7%

Question: And the viability, T/C [24]?
Answer: 18.9%

Question: What about the viability, T/C [25] of the same compound?
Answer: 18.9%

Question: What about the viability, T/C [26] of the same compound?
Answer: 18.7%

Question: And the viability, T/C (second compound 10 µM, first compound 0.00316 µM)?
Answer: 20.3%

Question: And the viability, T/C (second compound 10 µM, first compound 0.01 µM)?
Answer: 18%

Question: And the viability, T/C [27]?
Answer: 16.9%

Question: What about the viability, T/C [28] of the same compound?
Answer: 17.8%

Question: And the viability, T/C [29]?
Answer: 22%

Question: What about the viability, T/C [30] of the same compound?
Answer: 25.9%

Question: How did the viability, T/C (compound 0.00949 µM) turn out when `NC(=O)C(=Cn1cnc(-c2cc(C(F)(F)F)cc(C(F)(F)F)c2)n1)c1cncnc1` was run?
Answer: 78.2% and 92.5%

Question: What about the viability, T/C (compound 0.03 µM) of the same compound?
Answer: 70.7% and 66.7%

Question: And the viability, T/C (compound 0.0949 µM)?
Answer: 41.7% and 36.3%

Question: What about the viability, T/C (compound 0.3 µM) of the same compound?
Answer: 27% and 18.9%

Question: What about the viability, T/C (compound 0.949 µM) of the same compound?
Answer: 7.58% and 5.02%

Question: What about the viability, T/C (compound 3 µM) of the same compound?
Answer: 3.05% and 2.18%

Question: And the IC50 (curve of compound)?
Answer: 76 nM and 57.4 nM

Question: `CCCS(=O)(=O)Nc1ccc(F)c(C(=O)c2c[nH]c3ncc(-c4ccc(Cl)cc4)cc23)c1F` + CNC(=O)c1ccc(Nc2nc(OC3CCCC3)c3c(-c4ccc5nc(C)oc5c4)c[nH]c3n2)c(OC)c1 was tested. Which IC50 [1] did it give?
Answer: > 10000 nM

Question: And the IC50 [2]?
Answer: 1620 nM

Question: And the IC50 [3]?
Answer: < 31.6 nM

Question: What about the IC50 [4] of the same compound?
Answer: < 31.6 nM

Question: And the IC50 [5]?
Answer: < 31.6 nM

Question: And the IC50 [6]?
Answer: < 31.6 nM

Question: And the viability, T/C [7]?
Answer: 103%

Question: And the viability, T/C [8]?
Answer: 118%

Question: What about the viability, T/C [9] of the same compound?
Answer: 115%

Question: And the viability, T/C [10]?
Answer: 123%

Question: And the viability, T/C (second compound 0.0316 µM, first compound 3.16 µM)?
Answer: 107%

Question: What about the viability, T/C (second compound 0.0316 µM, first compound 10 µM) of the same compound?
Answer: 52.5%

Question: What about the viability, T/C [11] of the same compound?
Answer: 65.1%

Question: What about the viability, T/C [12] of the same compound?
Answer: 70%

Question: What about the viability, T/C [13] of the same compound?
Answer: 49.1%

Question: What about the viability, T/C [14] of the same compound?
Answer: 59.7%

Question: What about the viability, T/C (second compound 0.1 µM, first compound 3.16 µM) of the same compound?
Answer: 44%

Question: What about the viability, T/C (second compound 0.1 µM, first compound 10 µM) of the same compound?
Answer: 37.2%

Question: And the viability, T/C [15]?
Answer: 19.9%

Question: What about the viability, T/C [16] of the same compound?
Answer: 22.5%

Question: And the viability, T/C [17]?
Answer: 23.6%

Question: What about the viability, T/C [18] of the same compound?
Answer: 22.6%

Question: And the viability, T/C (second compound 0.316 µM, first compound 3.16 µM)?
Answer: 32.6%

Question: And the viability, T/C (second compound 0.316 µM, first compound 10 µM)?
Answer: 24.3%

Question: And the viability, T/C [19]?
Answer: 18.9%

Question: And the viability, T/C [20]?
Answer: 20.6%

Question: And the viability, T/C [21]?
Answer: 23.6%

Question: What about the viability, T/C [22] of the same compound?
Answer: 27%

Question: And the viability, T/C (second compound 1 µM, first compound 3.16 µM)?
Answer: 30.7%

Question: And the viability, T/C (second compound 1 µM, first compound 10 µM)?
Answer: 24.8%

Question: What about the viability, T/C [23] of the same compound?
Answer: 19.8%

Question: What about the viability, T/C [24] of the same compound?
Answer: 25.4%

Question: What about the viability, T/C [25] of the same compound?
Answer: 23.9%

Question: What about the viability, T/C [26] of the same compound?
Answer: 28%

Question: And the viability, T/C (second compound 3.16 µM, first compound 3.16 µM)?
Answer: 29%

Question: And the viability, T/C (second compound 3.16 µM, first compound 10 µM)?
Answer: 23.4%

Question: And the viability, T/C [27]?
Answer: 21.5%

Question: What about the viability, T/C [28] of the same compound?
Answer: 23.3%

Question: And the viability, T/C [29]?
Answer: 26.8%

Question: What about the viability, T/C [30] of the same compound?
Answer: 29.1%

Question: What about the viability, T/C (second compound 10 µM, first compound 3.16 µM) of the same compound?
Answer: 31.1%

Question: What about the viability, T/C (second compound 10 µM, first compound 10 µM) of the same compound?
Answer: 29%
